Results reported in patent US20200017823A1, “HYDROGEL COMPOSITIONS FOR USE IN NEURAL CELL EXPANSION AND DIFFERENTIATION” (Wisconsin Alumni Research Foundation, priority 2018, published 2020).
Where two headings read alike, the source gives them in different places.

Columns and labels:
iCell Neurons [1] = assay: High-content imaging with skeleton network analysis: neurite branches versus cell viability
Procedure: All data points are mean±SEM. FIG. 14A: Dexamethasone. FIG. 14B: Colchicine.
Commercially available human iPSC-derived neurons (iCell Neurons) and their supporting media were purchased from Cellular Dynamics International (CDI, Madison, Wis.). Previously characterized iCell Neurons represent a mixture of post-mitotic GABAergic and glutamatergic neurons with >95% purity. The cells were received, frozen, thawed, and plated following a protocol recommended by CDI. Briefly, cells were plated on poly-L-lysine pre-coated 384 well plates (Greiner Bio-One) with PEG-NB hydrogels, 3.3 μg/ml laminin, or 60-120 μg/ml […]®.

iCell Neurons [2] = assay: Synthetic hydrogel-based network formation/inhibition assay (total network area); format: cell-based, human; details: PLL/Laminin and MATRIGEL screening systems
Source text: Total network area was quantified by thresholding neurite processes and cell bodies stained with immunofluorescent tags for βIII-tubulin and MAP2. The resulting data was compared using the Z′ statistic to assess the accuracy of the synthetic hydrogel, PLL/Laminin, and MATRIGEL® screening systems in distinguishing neuronal networks disrupted by the known microtubule inhibitor Colchicine from non-inhibited networks.

NC(=O)N1c2ccccc2C=Cc2ccccc21 [Carbamazepine]
cell viability (iCell Neurons [1]): reduced viability
neurite branches / neurite growth (iCell Neurons [1]): apparent inhibition

COc1cc2c(c(OC)c1OC)-c1ccc(OC)c(=O)cc1[C@@H](NC(C)=O)CC2 [Colchicine]
neurite branches / neurite growth (iCell Neurons [1]; synthetic substrate, treated after 120-hour growth, exposed 120 hours, media replenished daily, compared to cell viability): significant reductions
neuronal network (total network area, βIII-tubulin and MAP2 stain) (iCell Neurons [2]): disrupted

C[C@@H]1C[C@H]2[C@@H]3CCC4=CC(=O)C=C[C@]4(C)[C@@]3(F)[C@@H](O)C[C@]2(C)[C@@]1(O)C(=O)CO [Dexamethasone]
neurite branches / neurite growth (iCell Neurons [1]): significant reductions
